Patent US8039668B2, “Naphthalene-based inhibitors of anti-apoptotic proteins” (Burnham Institute for Medical Research, priority 2008, dated 2011)

What was measured:
H460 cell line = settings: studied by other groups; cited from earlier work
HeLa cells = HeLa cells viability assay; format: cell-based; settings: Homo sapiens, Table 12
Experimental: Relative numbers of viable cells was determined by XTT assay. Briefly, in a 96-well plate, we added 50 μl of a mixture of 1 mg/ml of XTT (2,3-bis(2-methoxy-4-nitro-5-sulfophenyl)-5-[(phenylamino)carbonyl]-2H-tetrazolium hydroxide) (Polysciences, Washington, Pa.) containing 0.025 mM PMS (phenazine methosulfate) to each well. The 96-well plates were reincubated for an additional 4 hours to allow for XTT formazan production. Then, the contents of each plate were mixed and optical densities were determined at a wavelength of 450 nm (OD450). Net OD450 was determined after subtracting OD450 of blank wells. […] Immunoblot analysis of BCL-XL was accomplished as previously described.

IC50 (HeLa cells)	Structure (SMILES)	IC50 (H460 cell line)
	COC1=CC(c2cc3ccccc3[nH]2)=N/C1=C\c1[nH]c(C)cc1C [GX15-070]	3.85 µM
6.5 µM	O=c1c(O)cccc2cc(O)c(O)c(O)c12 [Purpurogallin]	
